Results on 2 compounds are retold here after publication PMC7224190, “Pharmacological inhibition of PRMT7 links arginine monomethylation to the cellular stress response” (Nature Communications, 2020).

The target in experiment [1] is T1, PRMT7 (Homo sapiens, UniProt Q9NVM4).
T1 sequence (Q9NVM4 1-692): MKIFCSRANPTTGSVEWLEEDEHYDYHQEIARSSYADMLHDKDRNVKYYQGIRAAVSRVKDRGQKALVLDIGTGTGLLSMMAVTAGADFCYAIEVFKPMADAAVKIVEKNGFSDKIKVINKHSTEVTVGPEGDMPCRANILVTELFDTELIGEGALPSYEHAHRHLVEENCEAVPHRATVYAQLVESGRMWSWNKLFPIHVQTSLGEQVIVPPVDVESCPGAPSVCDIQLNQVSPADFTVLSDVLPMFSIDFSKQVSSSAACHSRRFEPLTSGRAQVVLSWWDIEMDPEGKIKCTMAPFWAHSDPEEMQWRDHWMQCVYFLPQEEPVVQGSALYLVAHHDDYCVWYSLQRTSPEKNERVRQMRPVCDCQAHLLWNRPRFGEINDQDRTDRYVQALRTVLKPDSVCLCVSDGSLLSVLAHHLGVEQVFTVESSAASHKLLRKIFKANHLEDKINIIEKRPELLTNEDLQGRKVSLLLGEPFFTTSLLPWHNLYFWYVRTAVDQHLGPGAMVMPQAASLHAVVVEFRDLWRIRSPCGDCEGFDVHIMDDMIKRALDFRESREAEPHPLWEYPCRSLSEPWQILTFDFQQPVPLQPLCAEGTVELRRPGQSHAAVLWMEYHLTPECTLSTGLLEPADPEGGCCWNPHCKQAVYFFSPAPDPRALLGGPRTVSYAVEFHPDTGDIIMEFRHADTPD
The experiment can be described thus: radiometric enzyme kinetics (Km of the methyl donor) with HSPA8 as substrate in presence of ATP. The class given is biochemical.

Experiment [2] deals with T1, PRMT7. The experiment can be described thus: radiometric SPA methyltransferase assay, 3H-SAM and H2B ([…]). It is filed as biochemical.

By Km is commonly meant the substrate concentration at which the rate is half of its maximum. For `C[S@@+](CC[C@H](N)C(=O)O)C[C@H]1O[C@@H](n2cnc3c(N)ncnc32)[C@H](O)[C@@H]1O` [SAM], the Km on PRMT7 [1] was determined as 1.6 ± 0.1 µM.

Usually IC50 stands for the concentration at which inhibition is half-maximal. Take `NCCCSC[C@H]1O[C@@H](n2cnc3c(N)ncnc32)[C@H](O)[C@@H]1O` [SGC0911]: the IC50 against PRMT7 [2] worked out at 1000 nM. This counts as single-digit micromolar.
